Source: PubChem BioAssay AID248 (DTP/NCI, 2004)
Several values for one entry are separate records, joined by “and”; a condition that tells them apart may be missing. Equal values may be shown once. Inconclusive results and toxic doses are left out.

System: L1210 leukemia ip in BDF1 mice, survival T/C
Experiment: NCI In Vivo Anticancer Drug Screen. Data for tumor model L1210 Leukemia (intraperitoneal) in B6D2F1 (BDF1) mice
Conditions: endpoint: mean survival time, higher = longer survival
Outline: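 Read-out is survival time, reported as the treated-group measurement over the vehicle-control measurement.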

[1] = dose: 100.0 mg/kg/injection, schedule: Q01DX009 (ip), vehicle: Klucel (hydroxypropylcellulose) (HPC)
[2] = dose: 200.0 mg/kg/injection, schedule: Q01DX009 (ip), vehicle: Klucel (hydroxypropylcellulose) (HPC)
[3] = dose: 400.0 mg/kg/injection, schedule: Q01DX009 (ip), vehicle: Klucel (hydroxypropylcellulose) (HPC)
[4] = dose: 100.0 mg/kg/injection, schedule: Q04DX002 (ip), vehicle: Klucel (hydroxypropylcellulose) (HPC)
[5] = dose: 100.0 mg/kg/injection, schedule: Q01DX009 (ip), vehicle: saline with Tween-80
[6] = dose: 200.0 mg/kg/injection, schedule: Q01DX009 (ip), vehicle: saline with Tween-80
[7] = dose: 400.0 mg/kg/injection, schedule: Q01DX009 (ip), vehicle: saline with Tween-80
[8] = dose: 100.0 mg/kg/injection, schedule: Q01DX001 (ip), vehicle: saline
[9] = dose: 100.0 mg/kg/injection, schedule: Q01DX009 (ip), vehicle: saline
[10] = dose: 100.0 mg/kg/injection, schedule: Q04DX003 (ip), vehicle: saline
[11] = dose: 200.0 mg/kg/injection, schedule: Q01DX009 (ip), vehicle: saline
[12] = dose: 200.0 mg/kg/injection, schedule: Q04DX003 (ip), vehicle: saline
[13] = dose: 400.0 mg/kg/injection, schedule: Q01DX001 (ip), vehicle: saline
[14] = dose: 400.0 mg/kg/injection, schedule: Q01DX009 (ip), vehicle: saline
[15] = dose: 200.0 mg/kg/injection, schedule: Q04DX002 (ip), vehicle: Klucel (hydroxypropylcellulose) (HPC)
[16] = dose: 400.0 mg/kg/injection, schedule: Q04DX002 (ip), vehicle: Klucel (hydroxypropylcellulose) (HPC)
[17] = dose: 100.0 mg/kg/injection, schedule: Q01DX001 (ip), vehicle: other
[18] = dose: 200.0 mg/kg/injection, schedule: Q01DX001 (ip), vehicle: other
[19] = dose: 400.0 mg/kg/injection, schedule: Q01DX001 (ip), vehicle: other
[20] = dose: 100.0 mg/kg/injection, schedule: Q04DX003 (ip), vehicle: Klucel (hydroxypropylcellulose) (HPC)
[21] = dose: 200.0 mg/kg/injection, schedule: Q04DX003 (ip), vehicle: Klucel (hydroxypropylcellulose) (HPC)
[22] = dose: 400.0 mg/kg/injection, schedule: Q04DX003 (ip), vehicle: Klucel (hydroxypropylcellulose) (HPC)
[23] = dose: 15.0 mg/kg/injection, schedule: Q01DX Z (ip), vehicle: methylcellulose (MC)
[24] = dose: 100.0 mg/kg/injection, schedule: Q01DX001 (ip), vehicle: Klucel (hydroxypropylcellulose) (HPC)
[25] = dose: 200.0 mg/kg/injection, schedule: Q01DX001 (ip), vehicle: Klucel (hydroxypropylcellulose) (HPC)
[26] = dose: 400.0 mg/kg/injection, schedule: Q01DX001 (ip), vehicle: Klucel (hydroxypropylcellulose) (HPC)
[27] = dose: 100.0 mg/kg/injection, schedule: Q04DX003 (ip), vehicle: saline with Tween-80
[28] = dose: 400.0 mg/kg/injection, schedule: Q04DX003 (ip), vehicle: saline with Tween-80
[29] = dose: 200.0 mg/kg/injection, schedule: Q04DX003 (ip), vehicle: saline with Tween-80

COc1cc(C=Nc2cccc(C(F)(F)F)c2)ccc1OC(=O)c1ccccc1
T/C [1]: 86 % of control | T/C [2]: 94 % of control | T/C [3]: 91 % of control

Cc1cnc2c(=O)[nH]c(N)nc2n1
T/C (dose: 25.0 mg/kg/injection, schedule: Q04DX002 (ip), vehicle: Klucel (hydroxypropylcellulose) (HPC)): 97 % of control | T/C (dose: 50.0 mg/kg/injection, schedule: Q04DX002 (ip), vehicle: Klucel (hydroxypropylcellulose) (HPC)): 113 % of control | T/C [4]: 100 % of control

CC1(C)CC(=O)N/C1=C\C1NC(=O)CC1(C)C (stereo unspecified)
T/C [5]: 96 % of control | T/C [6]: 104 % of control | T/C [7]: 102 % of control

[Cl][Al]([Cl])[Cl]
T/C (dose: 6.25 mg/kg/injection, schedule: Q01DX009 (ip), vehicle: saline): 102 % of control | T/C (dose: 12.5 mg/kg/injection, schedule: Q01DX009 (ip), vehicle: saline): 93 % of control | T/C (dose: 50.0 mg/kg/injection, schedule: Q04DX003 (ip), vehicle: saline): 91 % of control | T/C [8]: 97 % of control and 89 % of control and 96 % of control | T/C [9]: 87 % of control | T/C [10]: 100 % of control and 87 % of control | T/C (dose: 200.0 mg/kg/injection, schedule: Q01DX001 (ip), vehicle: saline): 98 % of control and 94 % of control | T/C [11]: 96 % of control | T/C [12]: 96 % of control and 101 % of control and 90 % of control | T/C [13]: 100 % of control and 114 % of control | T/C [14]: 91 % of control

CC(CO)CCC1OC2CC3C4CCC5CC(O)CCC5(C)C4CCC3(C)C2C1C (stereo unspecified)
T/C [4]: 86 % of control | T/C [15]: 95 % of control | T/C [16]: 95 % of control

COc1ccc(NC(=O)Nc2ccc(C3=NCCCN3)cc2)cc1NC(=O)Nc1ccc(C2=NCCCN2)cc1
T/C (dose: 62.0 mg/kg/injection, schedule: Q01DX Z (ip), vehicle: carboxymethylcellulose (CMC)): 115 % of control | T/C (dose: 62.0 mg/kg/injection, schedule: Q01DX Z (oral), vehicle: carboxymethylcellulose (CMC)): 104 % of control | T/C (dose: 125.0 mg/kg/injection, schedule: Q01DX Z (oral), vehicle: carboxymethylcellulose (CMC)): 98 % of control | T/C (dose: 250.0 mg/kg/injection, schedule: Q01DX Z (ip), vehicle: carboxymethylcellulose (CMC)): 150 % of control | T/C (dose: 250.0 mg/kg/injection, schedule: Q01DX Z (oral), vehicle: carboxymethylcellulose (CMC)): 104 % of control | T/C (dose: 500.0 mg/kg/injection, schedule: Q01DX Z (oral), vehicle: carboxymethylcellulose (CMC)): 100 % of control

O=c1oc2ccc(N=Cc3ccc4c(c3)OCO4)cc2c2ccccc12
T/C [17]: 91 % of control | T/C [18]: 93 % of control | T/C [19]: 93 % of control

O=C(O)CCC1C2CC(C1C(=O)O)C1C3CCC(C3)C21 (stereo unspecified)
T/C [20]: 100 % of control | T/C [21]: 95 % of control | T/C [22]: 95 % of control

COc1ccccc1/C=N\N=C(N/N=C/c1ccccc1OC)N/N=C/c1ccccc1OC
T/C [23]: 96 % of control | T/C (dose: 30.0 mg/kg/injection, schedule: Q01DX Z (ip), vehicle: methylcellulose (MC)): 108 % of control | T/C (dose: 60.0 mg/kg/injection, schedule: Q01DX Z (ip), vehicle: methylcellulose (MC)): 101 % of control | T/C (dose: 60.0 mg/kg/injection, schedule: Q01DX Z (oral), vehicle: methylcellulose (MC)): 102 % of control | T/C (dose: 120.0 mg/kg/injection, schedule: Q01DX Z (ip), vehicle: methylcellulose (MC)): 102 % of control | T/C (dose: 120.0 mg/kg/injection, schedule: Q01DX Z (oral), vehicle: methylcellulose (MC)): 100 % of control | T/C (dose: 240.0 mg/kg/injection, schedule: Q01DX Z (ip), vehicle: methylcellulose (MC)): 97 % of control | T/C (dose: 325.0 mg/kg/injection, schedule: Q01DX Z (oral), vehicle: methylcellulose (MC)): 86 % of control | T/C (dose: 360.0 mg/kg/injection, schedule: Q01DX Z (ip), vehicle: methylcellulose (MC)): 100 % of control | T/C (dose: 480.0 mg/kg/injection, schedule: Q01DX Z (ip), vehicle: methylcellulose (MC)): 110 % of control | T/C (dose: 480.0 mg/kg/injection, schedule: Q01DX Z (oral), vehicle: methylcellulose (MC)): 104 % of control | T/C (dose: 675.0 mg/kg/injection, schedule: Q01DX Z (oral), vehicle: methylcellulose (MC)): 108 % of control

CCc1cccc(OS(=O)(=O)c2ccc([N+](=O)[O-])cc2)c1
T/C (dose: 25.0 mg/kg/injection, schedule: Q01DX009 (ip), vehicle: Klucel (hydroxypropylcellulose) (HPC)): 95 % of control | T/C [1]: 92 % of control

CCOC(=O)c1[nH]cnc1/N=N/N(C1CCCCC1)C1CCCCC1
T/C (dose: 50.0 mg/kg/injection, schedule: Q01DX001 (ip), vehicle: other): 94 % of control | T/C [17]: 97 % of control | T/C [18]: 102 % of control | T/C [19]: 92 % of control

Nc1c(Cl)cc(I)cc1C(=O)O
T/C [4]: 94 % of control | T/C [15]: 102 % of control | T/C [16]: 102 % of control

CCCCNC(=O)NS(=O)(=O)c1ccc(C)cc1
T/C [24]: 96 % of control | T/C [25]: 96 % of control | T/C [26]: 89 % of control

CCCCCCCCCCCCOc1ccccc1OC
T/C [24]: 89 % of control | T/C [25]: 90 % of control | T/C [26]: 95 % of control

O=C(CSc1cc(Cl)c(Cl)cc1Cl)Nc1ccc(Cl)cc1Cl
T/C (dose: 100.0 mg/kg/injection, schedule: Q01DX001 (ip), vehicle: saline with Tween-80): 87 % of control | T/C (dose: 200.0 mg/kg/injection, schedule: Q01DX001 (ip), vehicle: saline with Tween-80): 93 % of control | T/C (dose: 400.0 mg/kg/injection, schedule: Q01DX001 (ip), vehicle: saline with Tween-80): 93 % of control

O=C1CCCC(=O)NNC(=O)Nc2ccc(cc2)-c2ccc(cc2)NC(=O)NN1
T/C (dose: 50.0 mg/kg/injection, schedule: Q01DX001 (ip), vehicle: saline): 104 % of control | T/C [8]: 104 % of control | T/C [13]: 96 % of control

O=C(Cn1ccccc1=O)c1ccccc1
T/C [27]: 101 % of control | T/C [28]: 100 % of control

Cc1ccc(C)c(CCCCS(N)(=O)=O)c1
T/C [20]: 100 % of control | T/C [21]: 104 % of control | T/C [22]: 100 % of control

COc1ccccc1NC(=O)Nc1ccccc1
T/C [1]: 94 % of control and 102 % of control | T/C [20]: 95 % of control | T/C [2]: 96 % of control and 97 % of control | T/C [21]: 93 % of control | T/C [3]: 96 % of control and 100 % of control | T/C [22]: 86 % of control

O=C1Nc2ccccc2CCc2ccccc21
T/C [9]: 87 % of control | T/C [10]: 94 % of control | T/C [11]: 100 % of control | T/C [12]: 100 % of control | T/C [14]: 89 % of control | T/C (dose: 400.0 mg/kg/injection, schedule: Q04DX003 (ip), vehicle: saline): 96 % of control

COC(OC)c1[nH]c(=S)[nH]c(=O)c1CCCc1ccccc1
T/C [5]: 94 % of control | T/C [27]: 100 % of control | T/C [6]: 105 % of control | T/C [29]: 100 % of control | T/C [7]: 86 % of control | T/C [28]: 96 % of control

Cc1cc2ccc(OC(=O)c3ccc(N=C(N)N)cc3)cc2oc1=O
T/C [27]: 97 % of control | T/C [29]: 95 % of control | T/C [28]: 98 % of control

O=C(CNNc1ccc([N+](=O)[O-])cn1)Nc1ccc(S(=O)(=O)c2ccc(NC(=O)CNNc3ccc([N+](=O)[O-])cn3)cc2)cc1
T/C (dose: 10.0 mg/kg/injection, schedule: Q01DX Z (ip), vehicle: methylcellulose (MC)): 91 % of control | T/C [23]: 95 % of control | T/C (dose: 22.5 mg/kg/injection, schedule: Q01DX Z (ip), vehicle: methylcellulose (MC)): 94 % of control

O=c1[nH]cnc2ccnn12
T/C (dose: 50.0 mg/kg/injection, schedule: Q01DX009 (ip), vehicle: saline): 104 % of control | T/C [9]: 107 % of control | T/C [10]: 97 % of control | T/C [12]: 92 % of control
